Reference: patent US11542259B2, “Compounds for the treatment of kinase-dependent disorders” (Exelixis, Inc., priority 2018, dated 2023)
pIC50: −log10 of the molar value.

Assays:
[1] = biological target: Human Mer (residues R557-E882 with H628Q and R794A) (Homo sapiens (Human), UniProt Q12866); test: Human Mer kinase assay (33P radiometric, KinaseProfiler); assay type: biochemical; settings: 10 μM ATP
AXL = AXL (Homo sapiens (Human), UniProt P30530); test: AXL autophosphorylation ELISA in A-172 cells; assay type: cell-based; settings: cellular, Gas6 stimulated
Sequence of AXL (P30530 26-894): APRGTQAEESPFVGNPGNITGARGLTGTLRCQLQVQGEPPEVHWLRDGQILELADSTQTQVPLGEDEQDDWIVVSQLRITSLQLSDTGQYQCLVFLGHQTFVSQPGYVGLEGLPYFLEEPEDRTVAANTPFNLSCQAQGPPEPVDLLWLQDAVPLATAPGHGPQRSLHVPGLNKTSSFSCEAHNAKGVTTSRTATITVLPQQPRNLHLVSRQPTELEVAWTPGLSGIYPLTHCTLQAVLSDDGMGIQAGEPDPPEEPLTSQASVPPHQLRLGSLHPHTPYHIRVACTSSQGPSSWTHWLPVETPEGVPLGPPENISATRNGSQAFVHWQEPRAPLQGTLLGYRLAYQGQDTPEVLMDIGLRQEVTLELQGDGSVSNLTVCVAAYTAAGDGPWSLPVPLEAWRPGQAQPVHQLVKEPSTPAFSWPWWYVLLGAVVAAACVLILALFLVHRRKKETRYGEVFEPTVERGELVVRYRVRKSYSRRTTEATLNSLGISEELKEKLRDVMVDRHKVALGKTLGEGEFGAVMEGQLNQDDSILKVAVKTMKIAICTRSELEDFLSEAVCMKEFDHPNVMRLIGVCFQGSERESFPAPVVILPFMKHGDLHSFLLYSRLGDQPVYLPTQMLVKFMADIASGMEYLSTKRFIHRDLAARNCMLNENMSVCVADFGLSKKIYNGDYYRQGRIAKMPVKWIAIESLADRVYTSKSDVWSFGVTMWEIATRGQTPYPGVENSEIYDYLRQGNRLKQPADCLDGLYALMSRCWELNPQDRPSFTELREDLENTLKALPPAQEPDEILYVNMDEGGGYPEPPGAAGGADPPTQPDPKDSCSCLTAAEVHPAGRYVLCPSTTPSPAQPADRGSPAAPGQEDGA
Outline: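 Serum-starved (24 h) A-172 glioblastoma cells pretreated 1 h with compounds (8-point curve, 0.3% DMSO), then stimulated 15 min with 1 μg/mL Gas6. Lysate phospho-AXL measured by sandwich ELISA against a phospho-AXL standard; IC50 from 4-parameter logistic fit between DMSO and reference-inhibitor controls.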

KDR = KDR (Homo sapiens (Human), UniProt P35968); test: KDR autophosphorylation ELISA in HUVEC cells; assay type: cell-based; settings: cellular, VEGF165 stimulated
Sequence of KDR (P35968 20-1356): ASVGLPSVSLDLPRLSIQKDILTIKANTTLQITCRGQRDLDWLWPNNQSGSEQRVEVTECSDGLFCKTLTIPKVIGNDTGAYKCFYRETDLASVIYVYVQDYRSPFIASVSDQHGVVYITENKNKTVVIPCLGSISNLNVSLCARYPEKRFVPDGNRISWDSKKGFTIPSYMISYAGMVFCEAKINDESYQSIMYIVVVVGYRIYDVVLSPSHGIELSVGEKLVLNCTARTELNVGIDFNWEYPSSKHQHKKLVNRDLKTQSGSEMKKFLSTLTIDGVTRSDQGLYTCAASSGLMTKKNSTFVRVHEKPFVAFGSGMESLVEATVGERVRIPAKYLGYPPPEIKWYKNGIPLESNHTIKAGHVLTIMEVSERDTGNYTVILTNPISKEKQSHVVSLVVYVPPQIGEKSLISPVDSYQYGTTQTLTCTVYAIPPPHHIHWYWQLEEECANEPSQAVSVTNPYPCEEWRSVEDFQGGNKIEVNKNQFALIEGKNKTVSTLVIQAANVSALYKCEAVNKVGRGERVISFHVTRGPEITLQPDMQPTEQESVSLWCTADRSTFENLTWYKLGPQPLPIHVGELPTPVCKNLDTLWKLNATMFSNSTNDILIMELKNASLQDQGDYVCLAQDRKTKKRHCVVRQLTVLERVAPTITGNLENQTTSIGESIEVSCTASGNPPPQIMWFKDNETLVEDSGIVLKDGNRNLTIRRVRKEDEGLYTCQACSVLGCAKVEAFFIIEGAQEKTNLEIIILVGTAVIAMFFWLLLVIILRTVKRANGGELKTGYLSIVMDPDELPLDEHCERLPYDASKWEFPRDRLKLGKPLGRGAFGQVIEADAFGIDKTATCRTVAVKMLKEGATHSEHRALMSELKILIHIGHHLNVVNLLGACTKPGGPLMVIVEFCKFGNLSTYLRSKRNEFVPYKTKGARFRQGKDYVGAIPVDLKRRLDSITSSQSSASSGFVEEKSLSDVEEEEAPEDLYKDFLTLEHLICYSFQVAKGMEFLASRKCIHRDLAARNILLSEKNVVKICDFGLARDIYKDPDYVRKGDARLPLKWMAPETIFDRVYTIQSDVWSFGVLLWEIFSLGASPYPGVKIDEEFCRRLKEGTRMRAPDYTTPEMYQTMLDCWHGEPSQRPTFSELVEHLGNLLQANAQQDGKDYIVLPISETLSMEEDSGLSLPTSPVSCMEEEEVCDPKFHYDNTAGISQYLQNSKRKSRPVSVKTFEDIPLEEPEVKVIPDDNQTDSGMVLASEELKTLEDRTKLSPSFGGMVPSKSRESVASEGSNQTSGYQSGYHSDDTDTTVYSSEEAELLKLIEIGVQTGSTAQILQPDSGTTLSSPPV
Outline: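 HUVEC, 24 h serum-free starvation; cpd 8-pt dilution, 0.3% DMSO final, 1 h; VEGF165 100 ng/mL, 5 min; cold lysis; phospho-KDR ELISA; IC50, 4PL.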

Sequence of Human Mer (residues R557-E882 with H628Q and R794A) (Q12866 557-882, stated change not applied): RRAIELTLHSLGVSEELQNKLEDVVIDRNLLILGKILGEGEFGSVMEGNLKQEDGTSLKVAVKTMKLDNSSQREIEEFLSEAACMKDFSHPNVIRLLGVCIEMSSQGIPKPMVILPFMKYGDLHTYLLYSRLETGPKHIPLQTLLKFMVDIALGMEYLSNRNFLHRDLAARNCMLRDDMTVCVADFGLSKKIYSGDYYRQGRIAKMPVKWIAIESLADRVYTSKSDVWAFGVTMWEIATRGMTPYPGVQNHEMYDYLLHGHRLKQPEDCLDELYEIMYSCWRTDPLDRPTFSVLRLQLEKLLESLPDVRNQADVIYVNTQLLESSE

SMILES	pIC50 [1]	pIC50 (AXL)	pIC50 (KDR)
COc1cc2nccc(Oc3ccc(NC(=O)C4(C(=O)Nc5ccc(F)cc5)CC4)cc3)c2cc1C(=O)N1CC(O)C1 [Compound 16, 1-N′-(4-fluorophenyl)-1-N-[4-[6-(3-hydroxyazetidine-1-carbonyl)-7-methoxyquinolin-4-yl]oxyphenyl]cyclopropane-1,1-dicarboxamide]	≥ 8.00	7.00 to 8.00	6.52 to 7.00
COC(=O)c1cc2c(Oc3ccc(NC(=O)C4(C(=O)Nc5ccc(F)cc5)CC4)cc3Cl)ccnc2cc1OC [Compound 128, methyl 4-[2-chloro-4-[[1-[(4-fluorophenyl)carbamoyl]cyclopropanecarbonyl]amino]phenoxy]-7-methoxyquinoline-6-carboxylate]	≥ 8.00	7.00 to 8.00	≥ 8.00
COc1cc2nccc(Oc3ccc(NC(=O)C4(C(=O)Nc5ccc(F)cc5)CC4)cc3Cl)c2cc1C(N)=O [Compound 132, 1-N′-[4-(6-carbamoyl-7-methoxyquinolin-4-yl)oxy-3-chlorophenyl]-1-N-(4-fluorophenyl)cyclopropane-1,1-dicarboxamide]	≥ 8.00	≥ 8.00	≥ 8.00
NC(=O)c1ccc2c(Oc3ccc(NC(=O)C4(C(=O)Nc5ccc(F)cc5)CC4)cc3)ccnc2c1 [Compound 164, 1-N-[4-(7-carbamoylquinolin-4-yl)oxyphenyl]-1-N′-(4-fluorophenyl)cyclopropane-1,1-dicarboxamide]	≥ 8.00	≥ 8.00	7.00 to 8.00
COCCOc1cc2nccc(Oc3ccc(NC(=O)C4(C(=O)Nc5ccc(F)cc5)CC4)cc3)c2cc1C(N)=O [Compound 103, 1-N-[4-[6-carbamoyl-7-(2-methoxyethoxy)quinolin-4-yl]oxyphenyl]-1-N′-(4-fluorophenyl)cyclopropane-1,1-dicarboxamide]	≥ 8.00	≥ 8.00	≥ 8.00
NC(=O)c1cc2c(Oc3ccc(NC(=O)C4(C(=O)Nc5ccc(F)cc5)CC4)cc3)ccnc2cc1OCCCN1CCOCC1 [Compound 98, 1-N-[4-[6-carbamoyl-7-(3-morpholin-4-ylpropoxy)quinolin-4-yl]oxyphenyl]-1-N′-(4-fluorophenyl)cyclopropane-1,1-dicarboxamide]	≥ 8.00	≥ 8.00	≥ 8.00
NC(=O)c1cc2c(Oc3ccc(NC(=O)C4(C(=O)Nc5ccc(F)cc5)CC4)cc3)ccnc2cc1F [Compound 67, 1-N-[4-(6-carbamoyl-7-fluoroquinolin-4-yl)oxyphenyl]-1-N′-(4-fluorophenyl)cyclopropane-1,1-dicarboxamide]	7.00 to 8.00	6.52 to 7.00	6.52 to 7.00
COc1cc2nccc(Oc3ccc(NC(=O)C4(C(=O)Nc5ccc(F)cc5)CC4)cc3Cl)c2cc1C(=O)O [Compound 130, 4-[2-chloro-4-[[1-[(4-fluorophenyl)carbamoyl]cyclopropanecarbonyl]amino]phenoxy]-7-methoxyquinoline-6-carboxylic acid]	7.00 to 8.00	< 6.52	< 6.52
COc1cc2nccc(Oc3ccc(NC(=O)C4(C(=O)Nc5ccc(F)cc5)CC4)cc3)c2cc1C(=O)NC1CN(C)C1 [Compound 14, 1-N′-(4-fluorophenyl)-1-N-[4-[7-methoxy-6-[(1-methylazetidin-3-yl)carbamoyl]quinolin-4-yl]oxyphenyl]cyclopropane-1,1-dicarboxamide]	≥ 8.00	≥ 8.00	7.00 to 8.00

The next lines start with the values.

pIC50 [1]	pIC50 (AXL)	pIC50 (KDR)	SMILES
≥ 8.00	≥ 8.00	≥ 8.00	COc1cc2nccc(Oc3ccc(NC(=O)C4(C(=O)Nc5ccc(F)cc5)CC4)cc3)c2cc1-c1nnco1 [Compound 220, 1-N′-(4-Fluorophenyl)-1-N-[4-[7-methoxy-6-(1,3,4-oxadiazol-2-yl)quinolin-4-yl]oxyphenyl]cyclopropane-1,1-dicarboxamide]
≥ 8.00	≥ 8.00	7.00 to 8.00	COc1cc2nccc(Oc3ccc(NC(=O)C4(C(=O)Nc5ccc(F)cc5)CC4)cc3)c2cc1-c1ccc[nH]1 [Compound 188, 1-N′-(4-fluorophenyl)-1-N-[4-[7-methoxy-6-(1H-pyrrol-2-yl)quinolin-4-yl]oxyphenyl]cyclopropane-1,1-dicarboxamide]
≥ 8.00	7.00 to 8.00	7.00 to 8.00	COc1cc2nccc(Oc3ccc(NC(=O)C4(C(=O)Nc5ccc(F)cc5)CC4)cc3)c2cc1-c1cnoc1 [Compound 183, 1-N′-(4-fluorophenyl)-1-N-[4-[7-methoxy-6-(1,2-oxazol-4-yl)quinolin-4-yl]oxyphenyl]cyclopropane-1,1-dicarboxamide]
≥ 8.00	7.00 to 8.00	7.00 to 8.00	COc1cc2nccc(Oc3ccc(NC(=O)C4(C(=O)Nc5ccc(F)cc5)CC4)cc3)c2cc1-c1ccncc1 [Compound 202, 1-N′-(4-Fluorophenyl)-1-N-[4-(7-methoxy-6-pyridin-4-ylquinolin-4-yl)oxyphenyl]cyclopropane-1,1-dicarboxamide]
≥ 8.00	6.52 to 7.00	< 6.52	COc1cc2nccc(Oc3ccc(NC(=O)C4(C(=O)Nc5ccc(F)cc5)CC4)cc3)c2cc1-c1c(C)noc1C [Compound 184, 1-N-[4-[6-(3,5-dimethyl-1,2-oxazol-4-yl)-7-methoxyquinolin-4-yl]oxyphenyl]-1-N′-(4-fluorophenyl)cyclopropane-1,1-dicarboxamide]
≥ 8.00	7.00 to 8.00	≥ 8.00	COc1cc2nccc(Oc3ccc(NC(=O)C4(C(=O)Nc5ccc(F)cc5)CC4)cc3)c2cc1S(C)(=O)=O [Compound 210, 1-N′-(4-Fluorophenyl)-1-N-[4-(7-methoxy-6-methylsulfonylquinolin-4-yl)oxyphenyl]cyclopropane-1,1-dicarboxamide]
≥ 8.00	7.00 to 8.00	7.00 to 8.00	COc1cc2nccc(Oc3ccc(NC(=O)C4(C(=O)Nc5ccc(F)cc5)CC4)cc3)c2cc1-c1cccnc1 [Compound 201, 1-N′-(4-Fluorophenyl)-1-N-[4-(7-methoxy-6-pyridin-3-ylquinolin-4-yl)oxyphenyl]cyclopropane-1,1-dicarboxamide]
≥ 8.00	≥ 8.00	7.00 to 8.00	COc1cc2nccc(Oc3ccc(NC(=O)C4(C(=O)Nc5ccc(F)cc5)CC4)cc3)c2cc1-c1ccc(C)o1 [Compound 180, 1-N′-(4-fluorophenyl)-1-N-[4-[7-methoxy-6-(5-methylfuran-2-yl)quinolin-4-yl]oxyphenyl]cyclopropane-1,1-dicarboxamide]
≥ 8.00	7.00 to 8.00	7.00 to 8.00	COc1cc2nccc(Oc3ccc(NC(=O)C4(C(=O)Nc5ccc(F)cc5)CC4)cc3)c2cc1N1CCC1 [Compound 198, 1-N-[4-[6-(azetidin-1-yl)-7-methoxyquinolin-4-yl]oxyphenyl]-1-N′-(4-fluorophenyl)cyclopropane-1,1-dicarboxamide]
≥ 8.00	7.00 to 8.00	< 6.52	COc1cc2nccc(Oc3ccc(NC(=O)C4(C(=O)Nc5ccc(F)cc5)CC4)cc3)c2cc1C(=O)N1CCC1 [Compound 15, 1-N-[4-[6-(azetidine-1-carbonyl)-7-methoxyquinolin-4-yl]oxyphenyl]-1-N′-(4-fluorophenyl)cyclopropane-1,1-dicarboxamide]
